Test results as given in patent US20090062255A1, “TUMOR-TARGETING EVALUATION METHODOLOGY AND COMPOUNDS RELATED THERETO” (THALLION PHARMACEUTICALS INC., priority 2007, published 2009).

Legend:
PBR = biological target: T1, PBR (Rattus norvegicus, UniProt P16257); assay: In vivo PBR occupancy by PET (11C-(R)-PK11195) following IP administration; details: 30 mg/kg IP
T1 construct: from tissue; host or cells: orthotopic rat C6 glioma in Sprague-Dawley rats, in vivo
Procedure: (R)-1-(2-chlorophenyl)-N-methyl-N-(1-methyl-propyl)-3-isoquinoline carboxamide (R N-desmethyl PK11195), the precursor for the radioisotope-labeled (R) —PK11195, was purchased from ABX (Radeburg, Germany). The synthesis of ^11C-(R)-PK11195 was accomplished by a modification of the method of Camsonne et al. (J. Label. Compd. Radiopharm., 21: 985-991,1984). Briefly, ^11C-methyl iodide (^11C—CH3I) was transferred by a stream of nitrogen gas at a flow rate of 10 ml/min into a reaction medium containing 1 mg or R—N-desmethyl PK11195 previously dissolved in 0.5 mL of dimethylsulfoxide (DMSO) and about 20 mg of sodium hydroxide. The reaction was initiated at room temperature, with a bubbling of the ^11C—CH3I being continued over a 5 minute period. After bubbling was complete, the reaction mixture was left standing for 5 minutes. Purification was performed by high pressure liquid chromatography (HPLC) using a reverse-phase C18 column and a methanol:ammonium formate (20 mM) (80:20) mixture and a mobile phase at a flow rate of 3 mL/min. ^11C—(R) —PK11195 was eluted at 11 minutes and obtained with a specific radioactivity of […].
In vivo PET studies were performed 14 days post tumor implantation. […] Attenuation correction factors, for each rat (total of 7 animals), were determined using a 10 min ^57Co transmission scan acquired immediately prior to the dynamic scan. […]

[1] = tested on: human breast cell line MDA-MB-231; assay: Growth inhibitory MTT assay, MDA-MB-231; format: cell-based; details: 72 hours, treated over control
Procedure: (§1) Growth inhibitory activity of ECO-4601 (Compound 1) and other dibenzodiazepinone analogs was evaluated on a panel of 4 human tumor cell lines: the human uterine sarcoma MES-SA and its doxorubicin-resistant P-glycoprotein over-expressing variant, MES-SA/DX5 as well as non-aggressive and highly aggressive human breast cell lines, MCF-7 and MDA-MB-231, respectively. These four cell lines were obtained from the American Type Culture Collection (Manassas, Va.) and cultured in RPMI plus 10% fetal bovine serum (FBS) and maintained at 37° C. with 5% CO2.
(§2) Exponentially growing cells (5,000 cells per well time; cell number determined with a hemocytometer) were seeded in 96-well flat-bottom plates and allowed to grow overnight. Cells were then incubated for 72 hours with three different concentrations of ECO-4601 or analogs: 30,10, and 3 μM. The in vitro growth inhibitory activity was determined by a commercial MTT assay. All measurements were done in quadruplicate and each experiment was performed 2-3 times. The lower the value, the more cytotoxic is the compound.

[2] = tested on: MES-SA/DX5 (doxorubicin-resistant P-glycoprotein over-expressing variant); assay: Growth inhibitory MTT assay, MES-SA/DX5; format: cell-based, human; details: 72 hours, treated over control
Procedure: as §1, §2

[3] = tested on: human uterine sarcoma MES-SA; assay: Growth inhibitory MTT assay, MES-SA; format: cell-based; details: 72 hours, treated over control
Procedure: as §1, §2

[4] = biological target: T2, peripheral benzodiazepine receptor (PBR) (Rattus norvegicus, UniProt P16257); assay: In-house PBR binding assay ([3H]PK11195, rat heart mitochondrial membranes); details: in-house radioligand-binding assay
T2 construct: CBR and PBR were obtained from rat brain and heart membrane-fractions, respectively; from tissue; host or cells: Wistar rat heart membranes

[5] = tested on: human breast cell line MCF-7; assay: Growth inhibitory MTT assay, MCF-7; format: cell-based; details: 72 hours, treated over control
Procedure: as §1, §2

reduction of PBR occupancy for 11C-(R)-PK11195 binding, average (PBR) | IC50 [4] | Molecule | % T/C at 10 μM [1] | % T/C at 10 μM [2] | % T/C at 10 μM [3] | % T/C at 10 μM [5]
31% | – | 10-farnesyl-4,6,8-trihydroxy-5,10-dihydrodibenzo[b,e][1,4]diazepin-11-one [Compound 1] | – | – | – | –
– | 10 nM | CC(C)=CCC/C(C)=C/CC/C(C)=C/CN1C(=O)c2cccc(O)c2Nc2c1cc(O)c(C1CCCO1)c2O (stereo not drawn) [Compound 100] | 43% | 86% | 18% | 38%
